Target: AMPK
Experiment: AMPK activation, enzyme-linked immunosorbent assay
Assay type: biochemical
Details: EC50 for AMPK activation, ELISA
Method in brief: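 Read-out: immunodetected kinase activation after compound exposure, run with commercial kit reagents.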

| SMILES | EC50 |
| --- | --- |
| COc1ccc(CN2CCC(NC(=O)c3ccc(C(=O)N4CCC(C(=O)c5ccc(F)cc5)CC4)cn3)CC2)cc1 [Compound 160, 5-(4-(4-fluorobenzoyl)piperidine-1-carbonyl)-N-(1-(4-methoxybenzyl)piperidin-4-yl)picolinamide] | < 500 nM |
| O=C(NC1CCN(Cc2ccc(F)cc2)CC1)c1ccc(C(=O)N2CCC(Oc3cccc(NC(=O)C4CC4)c3)CC2)nc1 [Compound 432, 6-(4-(3-(cyclopropanecarboxamido)phenoxy)piperidine-1-carbonyl)-N-(1-(4-fluorobenzyl)piperidin-4-yl)nicotinamide] | 500 to 1000 nM |
| N#Cc1ccc(CN2CCC(NC(=O)c3ccc(C(=O)N4CCC(Oc5ccc(C(=O)C6CC6)cc5)CC4)nc3)CC2)cc1 [Compound 456, N-(1-(4-cyanobenzyl)piperidin-4-yl)-6-(4-(4-(cyclopropanecarbonyl)phenoxy)piperidine-1-carbonyl)nicotinamide] | < 500 nM |
| O=C(NC1CCN(C(=O)c2ccccc2)CC1)c1ccc(C(=O)N2CCN(Cc3ccc(F)cc3)CC2)cn1 [Compound 8, N-(1-(benzoyl)piperidin-4-yl)-5-(4-(4-fluorobenzyl)piperazine-1-carbonyl)picolinamide] | < 500 nM |
| N#Cc1ccc(O[C@H]2CC[C@H](NC(=O)c3ccc(C(=O)N4CCC(C(=O)c5ccc(F)cc5)CC4)cn3)CC2)cc1 [Compound 168, N-((trans)-4-(4-cyanophenoxy)cyclohexyl)-5-(4-(4-fluorobenzoyl)piperidine-1-carbonyl)picolinamide] | < 500 nM |
| N#Cc1ccc(-c2nnc3n2CCN(C(=O)c2ccc(C(=O)NC4CCN(Cc5cc(F)cc(F)c5)CC4)nc2)C3)cc1 [Compound 314, 5-(3-(4-cyanophenyl)-5,6,7,8-tetrahydro-[1,2,4]triazolo[4,3-a]pyrazine-7-carbonyl)-N-(1-(3,5-difluorobenzyl)piperidin-4-yl)picolinamide] | > 10000 nM |
| N#Cc1ccc(CN2CCC(NC(=O)c3ccc(C(=O)N4CCC(C(=O)c5ccc(C#N)cc5)CC4)cn3)CC2)cc1 [Compound 369, 5-(4-(4-cyanobenzoyl)piperidine-1-carbonyl)-N-(1-(4-cyanobenzyl)piperidin-4-yl)picolinamide] | < 500 nM |
| N#Cc1ccc(O[C@H]2CC[C@@H](NC(=O)c3ccc(C(=O)N4CCC(Oc5cccc(NC(=O)C6CC6)c5)CC4)nc3)CC2)cc1 [Compound 434, N-((cis)-4-(4-cyanophenoxy)cyclohexyl)-6-(4-(3-(cyclopropanecarboxamido)phenoxy)piperidine-1-carbonyl)nicotinamide] | < 500 nM |
| N#Cc1ccc(CN2CCC(NC(=O)c3ccc(N4CCC(Oc5ccc(C#N)cc5)CC4)nn3)CC2)cc1 [Compound 351, N-(1-(4-cyanobenzyl)piperidin-4-yl)-6-(4-(4-cyanophenoxy)piperidin-1-yl)pyridazine-3-carboxamide] | < 500 nM |
| CS(=O)(=O)c1ccc(OC2CCN(C(=O)c3ccc(C(=O)NC4CCN(Cc5ccc(F)cc5)CC4)cn3)CC2)cc1 [Compound 396, N-(1-(4-fluorobenzyl)piperidin-4-yl)-6-(4-(4-(methylsulfonyl)phenoxy)piperidine-1-carbonyl)nicotinamide] | 1000 to 5000 nM |
| N#Cc1ccc(OC2CCN(c3ccc(C(=O)N4CCN(Cc5ccc(F)cc5)CC4)cn3)CC2)cc1 [Compound 188, 4-(1-(5-(4-(4-fluorobenzyl)piperazine-1-carbonyl)pyridin-2-yl)piperidin-4-yloxy)benzonitrile] | 500 to 1000 nM |
| Cc1cc(CN2CCN(C(=O)c3ccc(C(=O)NC4CCN(Cc5ccccc5)CC4)nc3)CC2)no1 [Compound 85, N-(1-benzylpiperidin-4-yl)-5-(4-((5-methylisoxazol-3-yl)methyl)piperazine-1-carbonyl)picolinamide] | 1000 to 5000 nM |
| CS(=O)(=O)c1ccc(C(=O)C2CCN(C(=O)c3ccc(C(=O)N[C@@H]4CCN(Cc5ccc(C#N)cc5)C[C@H]4F)nc3)CC2)cc1 (relative stereo) [Compound 252, N-((trans)-1-(4-cyanobenzyl)-3-fluoropiperidin-4-yl)-5-(4-(4-(methylsulfonyl)benzoyl)piperidine-1-carbonyl)picolinamide] | 500 to 1000 nM |
| COc1ccc(CC2CCN(C(=O)c3ccc(C(=O)NC4CCN(Cc5ccc(C#N)cc5)CC4)nc3)CC2)cc1F [Compound 146, N-(1-(4-cyanobenzyl)piperidin-4-yl)-5-(4-(3-fluoro-4-methoxybenzyl)piperidine-1-carbonyl)picolinamide] | < 500 nM |
| O=C(NC1CCN(Cc2ccc(OC(F)(F)F)cc2)CC1)c1ccc(C(=O)N2CCC(S(=O)(=O)c3ccc(F)cc3)CC2)nc1 [Compound 470, 6-(4-(4-fluorophenylsulfonyl)piperidine-1-carbonyl)-N-(1-(4-(trifluoromethoxy)benzyl)piperidin-4-yl)nicotinamide] | < 500 nM |
| COc1ccc(C(=O)C2CCN(C(=O)c3ccc(C(=O)N[C@H]4CC[C@@H](Oc5ccc(C(F)(F)F)cc5)CC4)nc3)CC2)cc1 [Compound 192, 5-(4-(4-methoxybenzoyl)piperidine-1-carbonyl)-N-((cis)-4-(4-(trifluoromethyl)phenoxy)cyclohexyl) picolinamide] | < 500 nM |
| CC(=O)c1ccc(Oc2ccc(NC(=O)c3ccc(C(=O)N4CCN(Cc5ccc(F)cc5)CC4)nc3)cn2)cc1 [Compound 477, N-(6-(4-acetylphenoxy)pyridin-3-yl)-6-(4-(4-fluorobenzyl)piperazine-1-carbonyl)nicotinamide] | < 500 nM |
| N#Cc1ccc(CN2CCC(NC(=O)c3ccc(C(=O)N4CC(Oc5ccc(C#N)cc5)C4)cn3)CC2)cc1 [Compound 209, N-(1-(4-cyanobenzyl)piperidin-4-yl)-5-(3-(4-cyanophenoxy)azetidine-1-carbonyl)picolinamide] | < 500 nM |
| CN1CCN(c2ccc(C(=O)C3CCN(C(=O)c4ccc(C(=O)NC5CCN(Cc6ccc(C#N)cc6)CC5)nc4)CC3)cc2)CC1 [Compound 380, N-(1-(4-cyanobenzyl)piperidin-4-yl)-5-(4-(4-(4-methylpiperazin-1-yl)benzoyl)piperidine-1-carbonyl)picolinamide] | < 500 nM |
| CC(=O)c1ccc(OC2CCN(C(=O)c3ccc(C(=O)NC4CCN(Cc5ccc(C#N)cc5)CC4)cn3)CC2)cc1 [Compound 390, 6-(4-(4-acetylphenoxy)piperidine-1-carbonyl)-N-(1-(4-cyanobenzyl)piperidin-4-yl)nicotinamide] | < 500 nM |
| N#Cc1ccc(CN2CCC(NC(=O)c3ccc(C(=O)N4CCN(C5CCOCC5)CC4)cn3)CC2)cc1 [Compound 83, N-(1-(4-cyanobenzyl)piperidin-4-yl)-5-(4-(tetrahydro-2H-pyran-4-yl)piperazine-1-carbonyl)picolinamide] | > 10000 nM |
| O=C(c1ccc(N2CCC(Oc3ccc(C(F)(F)F)cc3)CC2)nc1)N1CCN(Cc2ccc(F)cc2)CC1 [Compound 187, (4-(4-fluorobenzyl)piperazin-1-yl)(6-(4-(4-(trifluoromethyl)phenoxy)piperidin-1-yl)pyridin-3-yl)methanone] | 1000 to 5000 nM |
| CS(=O)(=O)c1ccc(OC2CCN(C(=O)c3ccc(C(=O)NC4CCN(Cc5cccc(OC(F)(F)F)c5)CC4)cn3)CC2)cc1 [Compound 239, 6-(4-(4-(methylsulfonyl)phenoxy)piperidine-1-carbonyl)-N-(1-(3-(trifluoromethoxy)benzyl)piperidin-4-yl)nicotinamide] | 1000 to 5000 nM |
